Reference: publication PMC7996082, “The translocator protein ligands as mitochondrial functional modulators for the potential anti-Alzheimer agents” (Journal of Enzyme Inhibition and Medicinal Chemistry, 2021)

What was measured:
CYP1A2 = target: T1, CYP1A2 (Homo sapiens, UniProt P05177); assay: CYP inhibition assay (Vivid CYP450 screening kit); format: in vitro ADME; details: 10 μM compound
T1 construct: purchased Invitrogen, Madison, WI, USA
T1 sequence (P05177 2-516 limits assumed): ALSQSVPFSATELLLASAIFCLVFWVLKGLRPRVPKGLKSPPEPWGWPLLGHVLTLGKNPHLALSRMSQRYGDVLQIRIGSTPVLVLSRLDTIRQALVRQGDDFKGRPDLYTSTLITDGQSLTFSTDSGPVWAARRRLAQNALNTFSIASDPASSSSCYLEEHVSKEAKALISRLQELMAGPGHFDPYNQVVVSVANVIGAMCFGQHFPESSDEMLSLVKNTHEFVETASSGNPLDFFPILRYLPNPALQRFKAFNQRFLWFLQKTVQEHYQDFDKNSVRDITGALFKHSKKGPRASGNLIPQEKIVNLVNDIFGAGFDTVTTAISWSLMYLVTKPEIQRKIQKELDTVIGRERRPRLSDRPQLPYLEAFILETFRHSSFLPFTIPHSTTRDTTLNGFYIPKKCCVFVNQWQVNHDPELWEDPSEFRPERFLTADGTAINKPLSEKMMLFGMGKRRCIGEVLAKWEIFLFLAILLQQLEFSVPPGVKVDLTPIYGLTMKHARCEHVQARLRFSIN
Experimental: (§1) Human CYP450 (CYP1A2, 2D6, 2C9, 2C19, and 3A4) activities were determined by using the Vivid® CYP450 screening kit (Invitrogen, Madison, WI, USA) in a clear 96-well plate. Five positive controls were used as 10 mM solutions in MeCN for five different CYP450 enzymes: CYP1A2 (α-naphthoflavone), CYP2D6 (quinidine), CYP2C9 (sulfaphenazole), CYP2C19 (lansoprazole), and CYP3A4 (ketoconazole). Each sample (test compounds, positive inhibition controls, and solvent controls) was added into each well with the Master Pre-Mix [CYP450 BACULOSOMES® Reagent (recombinant human CYP450 isozyme and rabbit NADPHP450 reductase) and Regeneration System (3.3 mM glucose-6-phosphate and 0.3 U/ml glucose-6-phosphate dehydrogenase in 100 mM potassium phosphate, pH 8.0)]. The mixture was incubated for 5 min at 37 °C, and the Vivid® CYP substrates and 0.1 mM NADP^+ buffer were added to initiate the CYP450 enzyme reaction. The % remaining activities of CYP450 were measured after 20 min by using a fluorescent plate reader (Flexstation® 3, Molecular Devices, USA).

CYP2C9 = target: T2, CYP2C9 (Homo sapiens, UniProt P11712); assay: CYP inhibition assay (Vivid CYP450 screening kit); format: in vitro ADME; details: 10 μM compound
T2 construct: purchased Invitrogen, Madison, WI, USA
Experimental: as §1

CYP2D6 = target: T3, CYP2D6 (Homo sapiens, UniProt P10635); assay: CYP inhibition assay (Vivid CYP450 screening kit); format: in vitro ADME; details: 10 μM compound
T3 construct: purchased Invitrogen, Madison, WI, USA
Experimental: as §1

CYP3A4 = target: T4, CYP3A4 (Homo sapiens, UniProt P08684); assay: CYP inhibition assay (Vivid CYP450 screening kit); format: in vitro ADME; details: 10 μM compound
T4 construct: purchased Invitrogen, Madison, WI, USA
Experimental: as §1

hERG channel = target: T5, hERG channel (Homo sapiens, UniProt Q12809); assay: hERG inhibition assay (automated patch-clamp, CHO-K1 Tet-On hERG cells); format: cell-based; details: for IC50: patch-clamp, ± SD; for hERG inhibition (in words): authors' grading of Table 6
T5 construct: host or cells: CHO-K1 Tet-On hERG cells
Experimental: For automated patch-clamp NPC-16 Patchliner (Nanion Technologies, München, Germany) recordings, CHO-K1 Tet-On hERG cells (IonGate Biosciences GmbH, Frankfurt, Germany) were plated into 100-mm cell culture dishes. Whole-cell currents were recorded with the intracellular solution containing: 50 mM KCl, 60 mM KF, 10 mM NaCl, 2 mM MgCl2, 20 mM EGTA and 10 mM HEPES (pH 7.2), and with the extracellular solution containing: 140 mM NaCl, 4 mM KCl, 2 mM CaCl2, 1 mM MgCl2, 5 mM Glucose and 10 HEPES (pH 7.4). To assist stable seal formations, the seal enhancer containing: 80 mM NaCl, 3 mM KCl, 35 mM CaCl2, 10 mM MgCl2 and 10 mM HEPES (pH 7.4) was used only at the seal formation step. Prior to the whole-cell recordings, the external seal enhancing solution was exchanged to the extracellular solution described above. hERG channel currents were recorded using the parallel EPC-10 patch-clamp amplifiers (HEKA Elektronik, Lambrecht/Pfalz, Germany), and low-pass filtered (10 kHz) with a 4-pole Bessel filter. Cell suspension and patch solutions were automatically added onto the four recording wells in the microfabricated disposable chip (NPC-16 Chip, Nanion Technologies, München, Germany). To obtain the inhibitory constants, hERG tail currents were evoked by repolarizing steps to −50 mV for 500 ms preceded by a 500-ms depolarisation potential of +20 mV at a holding potential of −80 mV with a 20-s sweep interval. Whole-cell currents were acquired and digitised at 5 kHz using Patchmaster (HEKA Elektronik, Lambrecht/Pfalz, Germany). The extracellular solution was exchanged to the extracellular solution containing each blocker via four pipette tips of NPC-16 Patchliner using a 4-fold volume of solution (40 µL) with a speed of 4 µL/s, and the exchanged blocker solution was applied for 100–200 s to the patch-clamped cells until blocker binding had reached equilibrium by monitoring hERG tail currents. Whole-cell recordings were analysed using the Patchmaster/Fitmaster (HEKA Elektronik, Lambrecht/Pfalz, Germany), IGOR Pro (WaveMetrics Inc., Portland, OR, USA), and the GraphPad Prism 4.0 (GraphPad Software, Inc., La Jolla, CA, USA) software.

T2 sequence (P11712 whole entry): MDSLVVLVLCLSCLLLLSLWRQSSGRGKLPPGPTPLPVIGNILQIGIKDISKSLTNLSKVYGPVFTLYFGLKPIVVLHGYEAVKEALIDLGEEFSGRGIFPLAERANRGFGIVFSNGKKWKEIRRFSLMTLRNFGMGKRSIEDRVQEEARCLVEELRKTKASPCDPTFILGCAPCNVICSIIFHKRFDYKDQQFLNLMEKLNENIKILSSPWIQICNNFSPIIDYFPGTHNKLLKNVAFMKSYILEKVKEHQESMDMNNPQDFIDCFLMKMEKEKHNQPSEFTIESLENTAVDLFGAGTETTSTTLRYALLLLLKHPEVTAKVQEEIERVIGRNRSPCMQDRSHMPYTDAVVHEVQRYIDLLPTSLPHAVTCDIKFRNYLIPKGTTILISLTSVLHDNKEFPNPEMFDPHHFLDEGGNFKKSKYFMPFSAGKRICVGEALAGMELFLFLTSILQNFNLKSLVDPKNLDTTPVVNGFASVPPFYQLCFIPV
T3 sequence (P10635 whole entry): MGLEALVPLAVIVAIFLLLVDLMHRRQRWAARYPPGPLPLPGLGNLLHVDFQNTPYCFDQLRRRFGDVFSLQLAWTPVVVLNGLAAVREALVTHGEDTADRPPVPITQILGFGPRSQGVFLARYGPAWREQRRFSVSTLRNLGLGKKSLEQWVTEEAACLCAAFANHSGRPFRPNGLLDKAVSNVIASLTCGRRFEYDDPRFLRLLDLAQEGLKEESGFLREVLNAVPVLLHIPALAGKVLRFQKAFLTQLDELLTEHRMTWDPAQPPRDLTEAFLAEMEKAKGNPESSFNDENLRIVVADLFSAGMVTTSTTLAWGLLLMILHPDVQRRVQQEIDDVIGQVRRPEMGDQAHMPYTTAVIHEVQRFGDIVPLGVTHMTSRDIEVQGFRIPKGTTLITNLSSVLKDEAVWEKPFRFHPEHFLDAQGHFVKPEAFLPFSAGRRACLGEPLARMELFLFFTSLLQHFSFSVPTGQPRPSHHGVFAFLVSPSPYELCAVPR
T5 sequence (Q12809 whole entry): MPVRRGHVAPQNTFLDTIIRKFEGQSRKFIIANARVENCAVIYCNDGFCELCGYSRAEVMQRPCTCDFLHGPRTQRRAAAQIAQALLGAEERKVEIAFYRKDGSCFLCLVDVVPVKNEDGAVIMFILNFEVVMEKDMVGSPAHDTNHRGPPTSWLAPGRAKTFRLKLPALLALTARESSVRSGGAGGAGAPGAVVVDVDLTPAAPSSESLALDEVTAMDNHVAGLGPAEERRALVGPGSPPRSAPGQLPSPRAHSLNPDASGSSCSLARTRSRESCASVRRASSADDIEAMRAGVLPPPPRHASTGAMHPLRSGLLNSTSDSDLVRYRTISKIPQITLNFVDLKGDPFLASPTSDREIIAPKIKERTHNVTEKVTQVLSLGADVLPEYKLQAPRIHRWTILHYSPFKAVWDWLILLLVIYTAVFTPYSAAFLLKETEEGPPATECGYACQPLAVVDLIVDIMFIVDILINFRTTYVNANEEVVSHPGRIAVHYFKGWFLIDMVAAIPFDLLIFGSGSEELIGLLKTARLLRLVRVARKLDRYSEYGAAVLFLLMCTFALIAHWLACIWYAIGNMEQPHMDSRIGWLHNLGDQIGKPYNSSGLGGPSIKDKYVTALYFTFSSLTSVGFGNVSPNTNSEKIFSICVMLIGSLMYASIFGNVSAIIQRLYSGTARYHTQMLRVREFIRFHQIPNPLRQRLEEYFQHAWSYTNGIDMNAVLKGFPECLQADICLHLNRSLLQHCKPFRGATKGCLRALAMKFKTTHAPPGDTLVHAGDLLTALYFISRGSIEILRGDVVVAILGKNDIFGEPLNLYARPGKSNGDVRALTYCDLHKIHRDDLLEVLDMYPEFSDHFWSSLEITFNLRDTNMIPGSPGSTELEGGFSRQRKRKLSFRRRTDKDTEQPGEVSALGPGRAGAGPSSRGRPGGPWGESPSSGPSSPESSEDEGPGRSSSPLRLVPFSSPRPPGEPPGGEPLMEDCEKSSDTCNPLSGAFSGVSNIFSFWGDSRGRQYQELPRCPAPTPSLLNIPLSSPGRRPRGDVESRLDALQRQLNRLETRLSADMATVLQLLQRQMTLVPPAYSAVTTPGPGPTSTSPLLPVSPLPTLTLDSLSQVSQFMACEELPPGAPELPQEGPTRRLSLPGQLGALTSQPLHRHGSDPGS
T4 sequence (P08684 2-503 limits assumed): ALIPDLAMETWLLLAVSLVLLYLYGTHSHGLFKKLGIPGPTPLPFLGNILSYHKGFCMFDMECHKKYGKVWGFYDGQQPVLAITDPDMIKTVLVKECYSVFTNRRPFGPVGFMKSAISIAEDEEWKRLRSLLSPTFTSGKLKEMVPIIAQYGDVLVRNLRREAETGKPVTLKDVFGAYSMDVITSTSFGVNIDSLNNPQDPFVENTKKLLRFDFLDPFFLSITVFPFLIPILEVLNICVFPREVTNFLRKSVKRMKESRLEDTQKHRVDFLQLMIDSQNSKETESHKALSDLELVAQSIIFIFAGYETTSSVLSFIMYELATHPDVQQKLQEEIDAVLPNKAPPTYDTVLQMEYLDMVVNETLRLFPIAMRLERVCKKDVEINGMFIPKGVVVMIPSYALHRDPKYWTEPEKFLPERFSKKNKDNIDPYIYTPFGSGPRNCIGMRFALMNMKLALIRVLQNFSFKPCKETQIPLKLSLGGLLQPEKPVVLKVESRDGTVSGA

| CYP450 (% remaining Activity at 10 μM) CYP1A2 (CYP1A2) | CYP450 (% remaining Activity at 10 μM) CYP2C9 (CYP2C9) | CYP450 (% remaining Activity at 10 μM) CYP2D6 (CYP2D6) | CYP450 (% remaining Activity at 10 μM) CYP3A4 (CYP3A4) | SMILES | IC50 (hERG channel) | hERG inhibition (in words) (hERG channel) |
| --- | --- | --- | --- | --- | --- | --- |
| 95.3% | 99.6% | 43.1% | 28.1% | CCOc1ccc(-n2c(SCC(=O)NCc3ccccc3)nc3sc4c(c3c2=O)CCN(C)C4)cc1 [Compound 49] | 15 ± 4.24 µM | low hERG inhibition |
| 97.3% | 66.4% | 30.0% | 36.5% | CCOc1ccc(-n2c(SCC(=O)N(C)Cc3ccccc3)nc3sc4c(c3c2=O)CCN(C)C4)cc1 [Compound 50] | 10.6 ± 0.97 µM | low hERG inhibition |

Further lines, the compound ahead of its results:

| SMILES | CYP450 (% remaining Activity at 10 μM) CYP1A2 (CYP1A2) | CYP450 (% remaining Activity at 10 μM) CYP2C9 (CYP2C9) | CYP450 (% remaining Activity at 10 μM) CYP2D6 (CYP2D6) | CYP450 (% remaining Activity at 10 μM) CYP3A4 (CYP3A4) | IC50 (hERG channel) | hERG inhibition (in words) (hERG channel) |
| --- | --- | --- | --- | --- | --- | --- |
| CCOc1ccc(-n2c(SCC(=O)Nc3ccc(OC)c(OC)c3)nc3sc4c(c3c2=O)CCN(C(C)=O)C4)cc1 [Compound 7] | 69.0% | 72.5% | 83.3% | 69.9% | 19.5 ± 4.43 µM | – |
| CCOc1ccc(-n2c(SCC(=O)NC3CCN(C)CC3)nc3sc4c(c3c2=O)CCN(C(C)=O)C4)cc1 [Compound 30] | 119.7% | 93.0% | 118.5% | 31.0% | 12.3 ± 1.25 µM | low hERG inhibition |
| CCOc1ccc(-n2c(SCC(=O)NCc3ccccc3)nc3sc4c(c3c2=O)CCN(C(C)=O)C4)cc1 [Compound 31] | 143.1% | 51.1% | 88.1% | 18.3% | 8.8 ± 2.36 µM | low hERG inhibition |
| CCOc1ccc(-n2c(SCC(=O)N3CCN(c4ccccc4)CC3)nc3sc4c(c3c2=O)CCN(C(C)=O)C4)cc1 [Compound 44] | 92.0% | 84.4% | 117.3% | 72.2% | 8.9 ± 0.22 µM | low hERG inhibition |
